Like-named read-outs stand apart in the source and are kept apart here.
Experiments:
[1] = tested on: S. epidermidis (methicillin-susceptible and methicillin-resistant); assay: Graft infection rat model, quantitative graft culture; format: in vivo; details: rats, s.c. Dacron graft, explanted at 7 days, 0.1 mg/l BTs, 10 mg/l RIP, 10 mg/l rifampin
Protocol: As summarized in Table 21, implants impregnated with 0.1 μg/ml BisEDT, 10 μg/ml RIP and 10 μg/ml rifampin, alone or combined were implanted s.c. into rats. Physiological solution (1 ml) containing the MS and MR strains at 2×10^7 cfu/ml was inoculated onto the graft surface using a tuberculin syringe. All grafts were explanted at 7 days following implantation and sonicated for 5 minutes in sterile saline solution to remove the adherent bacteria. Quantitation of viable bacteria was obtained by culturing dilutions on blood agar plates. The limit of detection was approximately 10 cfu/cm^2.

S. epidermidis [2] = assay: Broth dilution MIC/MBC, BT-antibiotic combinations; format: cell-based, Staphylococcus epidermidis; details: for Δ, MIC / Δ (0.05 BE), MIC: 0.05 μg/ml BisEDT; for Δ (0.1 BE), MBC: 0.1 μg/ml BisEDT
Protocol: (§1) Materials & Methods. Susceptibility studies were performed by broth dilution in 96-well tissue culture plates (Nalge Nunc International, Denmark) in accordance with NCCLS protocols (National Committee for Clinical Laboratory Standards. (1997). Methods for Dilution Antimicrobial Susceptibility Tests for Bacteria that Grow Aerobically: Approved Standard M7-A2 and Informational Supplement M100-S10. NCCLS, Wayne, Pa., USA).
(§2) Briefly, overnight bacterial cultures were used to prepare 0.5 McFarland standard suspensions, which were further diluted 1:50 (˜2×10^6 cfu/mL) in cation-adjusted Mueller-Hinton broth medium (BBL, Cockeysville, Md., USA). BTs (prepared as described above) and antibiotics were added at incremental concentrations, keeping the final volume constant at 0.2 mL. Cultures were incubated for 24 h at 37° C. and turbidity was assessed by absorption at 630 nm using an ELISA plate reader (Biotek Instruments, Winooski, Vt., USA) according to the manufacturer's recommendations. […] Viable bacterial counts (cfu/mL) were determined by standard plating on nutrient agar.
(§3) The checkerboard method was used to assess the activity of antimicrobial combinations. The fractional inhibitory concentration index (FICI) and the fractional bactericidal concentration index (FBCI) were calculated, according to Eliopoulos et al. (Eliopoulos and Moellering, (1996) Antimicrobial combinations. In Antibiotics in Laboratory Medicine (Lorian, V., Ed.), pp. 330-96, Williams and Wilkins, Baltimore, Md., USA). Synergy was defined as an FICI or FBCI index of […], no interaction at >0.5-4 and antagonism at >4 (Odds, F C (2003) Synergy, antagonism, and what the chequerboard puts between them. Journal of Antimicrobial Chemotherapy 52:1). Synergy was also defined conventionally as ≧4-fold decrease in antibiotic concentration.

[3] = tested on: S. epidermidis S2400-1 biofilm; assay: Biofilm prevention, BisEDT-antibiotic combinations; format: cell-based, Staphylococcus epidermidis; details: for Δ (0.05 BE), biofilm prevention: 0.05 μg/ml BisEDT
Protocol: (§4) S. epidermidis grown in TSB+2% glucose in polystyrene plates for 48 h at 37° C. Gatifloxacin (GF), clindamycin (CM), minocycline (MC), gentamicin (GM), vancomycin (VM), cefazolin (CZ), nafcillin (NC), and rifampicin (RP). […]

MRSA clinical isolates [4] = assay: Broth dilution MIC in BHIG/X medium with subMIC BisEDT; format: cell-based, Staphylococcus aureus; details: 12 MRSA clinical isolates, BHIG/X, mean ± SD
Protocol: (§5) Broth dilution antimicrobial susceptibility studies were performed against 12 MRSA strains using several antibiotics combined with subMIC levels of BisEDT (Table 18). Both the biofilm-prevention concentration (BPC) and the minimum inhibitory concentration (MIC) were determined in a special biofilm culture medium (BHIG/X). […] These strains were already sensitive to vancomycin, but were made considerably moreso in the presence of subMIC BisEDT.
In this particular study, the data indicated synergy between BisEDT and cefepime (FIC<0.5), with many of the isolates at the breakpoint for sensitivity.

[5] = tested on: MRSA clinical isolates biofilm; assay: Biofilm-prevention concentration (BPC) in BHIG/X medium with subMIC BisEDT; format: cell-based, Staphylococcus aureus; details: 12 MRSA clinical isolates, mean ± SD
Protocol: as §5

[6] = tested on: lawn of MRSA (Methicillin-resistant S. aureus); assay: Antibiotic-soaked discs on bacterial lawn with and without BisEDT; format: cell-based, Staphylococcus aureus; details: antibiotic discs combined with BisEDT 0.05 μg/ml
Protocol: FIGS. 4A and 4B show the subinhibitory BisEDT reversing antibiotic-resistance to several antibiotics. Effects of antibiotics with and without BisEDT (0.05 μg/ml) on a lawn of MRSA (Methicillin-resistant S. aureus) is shown. […] [GM=gentamicin, CZ=cefazolin, FEP=cefepime, IPM=imipenim, SAM=ampicillin/sulbactam, LVX=levofloxacin.

MRSA = assay: Combination MIC study, nafcillin or gentamicin + BisEDT, TSB with 2% glucose; format: cell-based, Staphylococcus aureus; details: for Fold reduction of antibiotic MIC90 by BisEDT: BisEDT 0.2 μg/ml; for FIC: antibiotic combined with BisEDT 0.2 μg/ml
Excerpt: BTs reversed the resistance of all four gentamicin-resistant isolates tested to clinically relevant concentrations [Domenico et al., 2002]. The MICs for these antimicrobial agents was reduced substantially, especially for gentamicin.

S. epidermidis biofilm = assay: Biofilm prevention concentration (BPC), BisEDT and antibiotics; format: cell-based, Staphylococcus epidermidis; details: for Change of biofilm prevention concentration (BPC): 0.05 μg/ml BisEDT
Protocol: as §4

S. epidermidis [7] = assay: Growth inhibition (MIC) and MBC, BisEDT and antibiotics; format: cell-based, Staphylococcus epidermidis
Excerpt: Results are expressed as the mean change in MIC (dilution steps) with increasing BisEDT (n=3). See legend in FIG. 5 for antibiotic definitions.
The MIC change was most pronounced for clindamycin and gentamicin, followed by vancomycin, cefazolin, minocycline, gatifloxacin and nafcillin, with rifampicin unaffected.
Minimum bactericidal concentration (MBC) for most antibiotics tested against S. epidermidis decreased slightly with subMIC BisEDT. […] Clindamycin is a bacteriostatic agent, which explains its lack of bactericidal activity. Cefazolin resistance was reversed with respect to the MBC [Domenico et al., 2003]. These effects were additive.

MRSA clinical isolates [8] = details: cited from earlier work
S. aureus = assay: Broth dilution MIC/MBC, BT-antibiotic combinations; format: cell-based, Staphylococcus aureus; details: for MIC: Staphylococcus aureus
Protocol: as §1, §2, §3

[9] = methicillin-resistant S. epidermidis
[10] = methicillin-susceptible S. epidermidis
[11] = S. epidermidis ATCC 35984, BisEDT 0.0 μg/ml
[12] = S. epidermidis ATCC 35984, BisEDT 0.05 μg/ml
[13] = S. epidermidis S2400-1, BisEDT 0 μg/ml
[14] = S. epidermidis S2400-1, BisEDT 0.0 μg/ml
[15] = S. epidermidis S2400-1, BisEDT 0.05 μg/ml
[16] = S. epidermidis S2400-1, BisEDT 0.1 μg/ml
[17] = S. aureus ATCC 25923, BE = 0.2 μg/ml BisEDT

Compound	Quantitative graft culture [1, 9]	Quantitative graft culture [1, 10]	Δ, MIC (S. epidermidis [2]; S. epidermidis ATCC 35984)	MIC (S. epidermidis [2]; [11])	MIC (S. epidermidis [2]; [12])	Δ (0.05 BE), MIC (S. epidermidis [2]; S. epidermidis S2400-1)	Δ (0.1 BE), MBC (S. epidermidis [2]; S. epidermidis S2400-1)	MIC (S. epidermidis [2]; [13])	MBC (S. epidermidis [2]; [14])	MIC (S. epidermidis [2]; [15])	MBC (S. epidermidis [2]; [16])	MIC (S. epidermidis [2]; [16])	Δ (0.05 BE), biofilm prevention [3]	Biofilm Prevention (antibiotic concentration) ([3]; BisEDT 0 μg/ml)	Biofilm Prevention (antibiotic concentration) ([3]; BisEDT 0.05 μg/ml)	Biofilm Prevention (antibiotic concentration) ([3]; BisEDT 0.1 μg/ml)	Fold reduction of antibiotic MIC90 by BisEDT (MRSA)	FIC (MRSA)	Reduction in MBC with subMIC BisEDT (S. epidermidis [7])	Change of biofilm prevention concentration (BPC) (S. epidermidis biofilm)	other results
bismuth-1,2-ethanedithiol [BisEDT]	6.2 × 10^2 ± 2.3 × 10^2 cfu/cm^2	5.8 × 10^2 ± 0.9 × 10^2 cfu/cm^2																			
gentamicin			13.3	213.33 µg/mL	16.00 µg/mL	6.40	6.00	2048 µg/mL	1536 µg/mL	320 µg/mL	256 µg/mL	80 µg/mL	3.9	555 µg/mL	144 µg/mL	12 µg/mL	over 10 fold	0.6	4- to 16 fold		Synergy, MBC (S. epidermidis [2]; S. epidermidis S2400-1): + (Synergy was also defined conventionally as ≧4-fold decrease in antibiotic concentration); Synergy, MIC (S. epidermidis [2]; S. epidermidis S2400-1): + (Synergy was also defined conventionally as ≧4-fold decrease in antibiotic concentration); Synergy, biofilm prevention [3]: borderline; MIC (MRSA clinical isolates [4]; BisEDT 0 μg/mL): 81 ± 40 µg/mL; MIC (MRSA clinical isolates [4]; BisEDT 0.025 μg/mL): 60 ± 27 µg/mL; MIC (MRSA clinical isolates [4]; BisEDT 0.05 μg/mL): 58 ± 30 µg/mL; MIC (MRSA clinical isolates [4]; BisEDT 0.1 μg/mL): 48 ± 31 µg/mL; BPC ([5]; BisEDT 0 μg/mL): 81 ± 41 µg/mL; BPC ([5]; BisEDT 0.025 μg/mL): 63 ± 30 µg/mL; BPC ([5]; BisEDT 0.05 μg/mL): 53 ± 31 µg/mL; BPC ([5]; BisEDT 0.1 μg/mL): 33 ± 25 µg/mL; Antibiotic action on MRSA lawn with subMIC BisEDT [6]: enhanced antibiotic action; Fold reduction of BPC in presence of subMIC BisEDT (S. epidermidis biofilm; TSB + 2% glucose, 48 h): 4 fold; MIC Standards, R (resistance) (MRSA clinical isolates [8]; Standard MIC breakpoint for resistance): ≧16 μg/ml; MIC Standards, S (antibiotic sensitivity) (MRSA clinical isolates [8]; Standard MIC breakpoint for sensitivity): ≦4 μg/ml
CO[C@H]1/C=C/O[C@@]2(C)Oc3c(C)c(O)c4c(O)c(c(/C=N/N5CCN(C)CC5)c(O)c4c3C2=O)NC(=O)/C(C)=C\C=C\[C@H](C)[C@H](O)[C@@H](C)[C@@H](O)[C@@H](C)[C@H](OC(C)=O)[C@@H]1C [Rifampin]	7.6 × 10^4 ± 2.1 × 10^4 cfu/cm^2	5.9 × 10^3 ± 1.8 × 10^3 cfu/cm^2	1.5	0.021 µg/mL	0.014 µg/mL	0.75	0.43	0.03 µg/mL	0.03 µg/mL	0.04 µg/mL	0.07 µg/mL	0.04 µg/mL	0.7	0.03 µg/mL	0.04 µg/mL	0.04 µg/mL			remained largely unaffected	remained unaffected	Δ (S. aureus; MRSA S2446-3, BE = 0.2 μg/ml BisEDT): 1.0; Synergy (S. aureus; [17]): + (Synergy was also defined conventionally as ≧4-fold decrease in antibiotic concentration); Δ (S. aureus; [17]): 13.0; MIC (S. aureus; ATCC25923, S. aureus ATCC 25923, antibiotic alone, read-out: MIC): 0.033 µg/mL; MIC (S. aureus; ATCC25923, S. aureus ATCC 25923, with 0.2 μg/ml BisEDT, read-out: MIC + BE): 0.003 µg/mL; MIC (S. aureus; MRSA, MRSA S2446-3, antibiotic alone, read-out: MIC): 2.5 µg/mL; MIC (S. aureus; MRSA, MRSA S2446-3, with 0.2 μg/ml BisEDT, read-out: MIC + BE): 2.5 µg/mL; MIC change (growth inhibition) with BisEDT (S. epidermidis [7]; 0.1 μg/ml (0.5 μM) BisEDT): unaffected
CCOc1ccc2ccccc2c1C(=O)N[C@@H]1C(=O)N2[C@@H]1SC(C)(C)[C@@H]2C(=O)O [Nafcillin]			3.2	16.00 µg/mL	5.00 µg/mL	0.89	2.00	171 µg/mL	256 µg/mL	192 µg/mL	128 µg/mL	68 µg/mL	0.8	48 µg/mL	64 µg/mL	8 µg/mL	over 4 fold	0.74		remained unaffected	

From patent US9408393B2, “Bismuth-thiols as antiseptics for agricultural, industrial and other uses” (Microbion Corporation, priority 2010, dated 2016)
